Measured values from ChEMBL document CHEMBL3808319, “Development of novel cyclic peptides as pro-apoptotic agents” (Eur J Med Chem, 2016).
Activity calls are given as the source filed them. No cut-off for these calls is given here. *1 amine or outer side, *2 acyl side, *3 side chain or, on linkers, in order; H or OH if unused. Where a SMILES comes first, the peptide text is derived from it. [ ]: non-standard residue; d: D form. The star is where a group is joined. NH(CH2)2O(CH2)2NH2 = NCCOCCN*; ΔPro = O=C(O)[C@@H]1C=CCN1; CO = O=C([*:1])[*:2]; Bn = c1ccc(C*)cc1; GABA = NCCCC(=O)O; βAla = NCCC(=O)O

Columns and labels:
HL-60 [1] = experiment: Induction of apoptosis in human HL60 cells assessed as accumulation at subG0/G1 phase at 50 uM after 24 hrs by Annexin V and propidium iodide staining based flow cytometric analysis (reference value: 3.14 +/- 0.9 %); type: functional
Tubulin (Sus scrofa) [2] = biological target: T1, Tubulin (Sus scrofa) (UniProt P02554+P02550); experiment: Induction of pig tubulin polymerization at 100 uM after 60 mins by spectroscopic analysis; type: protein assay
MCF7 = experiment: Induction of apoptosis in human MCF7 cells assessed as accumulation at subG0/G1 phase at 50 uM after 48 hrs by Annexin V and propidium iodide staining based flow cytometric analysis (reference value: 8.5 +/- 2.4 %); type: functional
HL-60 [3] = experiment: Induction of apoptosis in human HL60 cells assessed as accumulation at subG0/G1 phase after 24 hrs by Annexin V and propidium iodide staining based flow cytometric analysis; type: functional, cell-based
HL-60 [4] = experiment: Induction of apoptosis in human HL60 cells assessed as reduction in accumulation at G0/G1 phase after 24 hrs by propidium iodide staining based flow cytometric analysis; type: functional, cell-based
HL-60 [5] = experiment: Induction of apoptosis in human HL60 cells assessed as reduction in accumulation at G2/M phase after 24 hrs by propidium iodide staining based flow cytometric analysis; type: functional, cell-based
HL-60 [6] = experiment: Induction of apoptosis in human HL60 cells assessed as loss of mitochondrial inner transmembrane potential at 50 uM after 24 hrs by TMRM dye based flow cytometric analysis; type: functional, cell-based
HL-60 [7] = experiment: Induction of apoptosis in human HL60 cells assessed as accumulation at subG0/G1 phase at 100 uM after 24 hrs by Annexin V and propidium iodide staining based flow cytometric analysis (reference value: 3.14 +/- 0.9 %); type: functional
Tubulin (Sus scrofa) [8] = biological target: T1, Tubulin (Sus scrofa); experiment: Induction of pig tubulin polymerization at 10 uM after 60 mins by spectroscopic analysis; type: protein assay
[9] = Induction of apoptosis in human EBV-B cells assessed as accumulation at subG0/G1 phase at 25 uM after 24 hrs by Annexin V and propidium iodide staining based flow cytometric analysis (reference value: 1.6 %); type: functional
B16-F1 = experiment: Induction of apoptosis in mouse B16-F1 cells assessed as accumulation at subG0/G1 phase at 50 uM after 24 hrs Annexin V and propidium iodide staining based flow cytometric analysis (reference value: 1.9 +/- 1.6 %); type: functional
A-375 [10] = experiment: Induction of apoptosis in human A375 cells assessed as accumulation at subG0/G1 phase at 50 uM after 72 hrs by Annexin V and propidium iodide staining based flow cytometric analysis (reference value: 7 +/- 1 %); type: functional
B16-F10 = experiment: Induction of apoptosis in mouse B16F10 cells assessed as accumulation at subG0/G1 phase at 50 uM after 24 hrs by Annexin V and propidium iodide staining based flow cytometric analysis (reference value: 3.7 +/- 3 %); type: functional
Jurkat = experiment: Induction of apoptosis in human Jurkat cells assessed as accumulation at subG0/G1 phase at 25 uM after 24 hrs by Annexin V and propidium iodide staining based flow cytometric analysis (reference value: 3.9 %); type: functional
HL-60 [11] = experiment: Induction of apoptosis in human HL60 cells assessed as accumulation at subG0/G1 phase at 25 uM after 24 hrs by Annexin V and propidium iodide staining based flow cytometric analysis (reference value: 5 %); type: functional
[12] = Induction of apoptosis in human 501mel cells assessed as accumulation at subG0/G1 phase at 50 uM after 72 hrs by Annexin V and propidium iodide staining based flow cytometric analysis (reference value: 9 +/- 1.8%); type: functional
RBL-2H3 = experiment: Induction of tubulin polymerization in rat RBL2H3 cells assessed as induction of alteration of microtubule network at 50 uM preincubated for 16 hrs measured after 24 hrs by confocal laser scanning microscopic analysis; type: cell-based
Homo sapiens [13] = species: Homo sapiens; experiment: Induction of apoptosis in human 501mel cells assessed as accumulation at subG0/G1 phase at 50 uM after 24 hrs by Annexin V and propidium iodide staining based flow cytometric analysis (reference value: 9 +/- 1.8 %); type: functional, cell-based
A-375 [14] = experiment: Induction of apoptosis in human A375 cells assessed as accumulation at subG0/G1 phase at 50 uM after 24 hrs by Annexin V and propidium iodide staining based flow cytometric analysis (reference value: 7 +/- 1 %); type: functional, cell-based
A-375 [15] = experiment: Induction of apoptosis in human A375 cells assessed as accumulation at subG0/G1 phase at 100 uM after 72 hrs by Annexin V and propidium iodide staining based flow cytometric analysis; type: functional, cell-based
Homo sapiens [16] = species: Homo sapiens; experiment: Induction of apoptosis in human 501mel cells assessed as accumulation at subG0/G1 phase at 100 uM after 72 hrs by Annexin V and propidium iodide staining based flow cytometric analysis; type: functional, cell-based

T1 sequence (P02550 whole entry, looked up): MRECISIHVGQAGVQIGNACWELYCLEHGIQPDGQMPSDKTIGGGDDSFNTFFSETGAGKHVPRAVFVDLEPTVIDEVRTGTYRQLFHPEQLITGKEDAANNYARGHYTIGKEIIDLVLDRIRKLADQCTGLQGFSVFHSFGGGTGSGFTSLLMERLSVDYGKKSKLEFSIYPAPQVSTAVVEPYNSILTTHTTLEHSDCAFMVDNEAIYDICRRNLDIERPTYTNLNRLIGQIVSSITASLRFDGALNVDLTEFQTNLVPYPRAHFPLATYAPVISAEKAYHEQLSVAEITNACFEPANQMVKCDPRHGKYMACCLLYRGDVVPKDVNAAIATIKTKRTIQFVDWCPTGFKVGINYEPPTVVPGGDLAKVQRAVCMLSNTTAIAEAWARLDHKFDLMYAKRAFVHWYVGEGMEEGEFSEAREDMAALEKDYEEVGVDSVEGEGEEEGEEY
T1 sequence (P02554 whole entry, looked up): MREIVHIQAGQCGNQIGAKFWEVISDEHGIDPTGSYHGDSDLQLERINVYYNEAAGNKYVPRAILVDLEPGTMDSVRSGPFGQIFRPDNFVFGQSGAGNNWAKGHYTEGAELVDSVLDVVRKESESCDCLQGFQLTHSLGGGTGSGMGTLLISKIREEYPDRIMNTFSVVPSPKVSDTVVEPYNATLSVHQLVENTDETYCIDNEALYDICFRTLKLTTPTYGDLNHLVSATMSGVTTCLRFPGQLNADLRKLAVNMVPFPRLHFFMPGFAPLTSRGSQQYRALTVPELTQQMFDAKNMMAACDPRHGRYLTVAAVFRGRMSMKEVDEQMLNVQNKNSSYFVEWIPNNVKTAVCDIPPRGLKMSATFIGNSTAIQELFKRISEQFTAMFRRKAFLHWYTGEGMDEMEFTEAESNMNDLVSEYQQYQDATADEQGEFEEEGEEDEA

In the case of `CC[C@H](C)[C@H](NC(=O)[C@@H]1CCCN1C(=O)[C@@H]1CCCN1C(C)=O)C(=O)N[C@H](C(=O)N1CCC[C@H]1C(=O)N[C@@H](Cc1ccc(O)cc1)C(=O)N[C@@H](Cc1ccccc1)C(=O)N(C)C)C(C)C` (Ac-PPIVPYF-NMe2), the Activity (HL-60 [1]) is reported as “inactive”.

In the case of H-GPPIVPYF-OH, the Activity (HL-60 [1]) is reported as “inactive”.

In the case of `CC[C@H](C)[C@H](NC(=O)[C@@H]1CCCN1C(=O)[C@@H]1CCCN1C(=O)CCN)C(=O)N[C@H](C(=O)NCC(=O)N[C@@H](Cc1ccc(O)cc1)C(=O)N[C@@H](Cc1ccccc1)C(=O)O)C(C)C` (H-[βAla]PPIVGYF-OH), the Activity (HL-60 [1]) is reported as “inactive”.

In the case of `CC[C@H](C)[C@@H]1NC(=O)[C@@H]2CCCN2C(=O)[C@@H]2CCCN2C(=O)CCNC(=O)[C@H](Cc2ccccc2)NC(=O)[C@H](Cc2ccc(O)cc2)NC(=O)[C@@H]2CCCN2C(=O)[C@H](C(C)C)NC1=O` (cyclo(F[βAla]PPIVPY)), the Activity (Tubulin (Sus scrofa) [2]) is reported as “Active”, the Activity (MCF7) is reported as 18.9% and the Activity (HL-60 [3]) is reported as “Dose-dependent effect”. The Activity (HL-60 [4]) was “Dose-dependent effect”, the Activity (HL-60 [5]) was “Dose-dependent effect” and the Activity (HL-60 [6]) was “Active”. It also gave an Activity (HL-60 [1]) of 33.1%.

For `CC[C@H](C)[C@@H]1NC(=O)NCCOCCCNC(=O)[C@H](Cc2ccccc2)NC(=O)[C@H](Cc2ccc(OCc3ccccc3)cc2)NC(=O)[C@@H]2C=CCN2C(=O)[C@H](C(C)C)NC1=O`, the Activity (HL-60 [3]) was “Dose-dependent effect”, the Activity (HL-60 [4]) was “Dose-dependent effect” and the Activity (HL-60 [5]) was “Dose-dependent effect”. For the same compound, the Activity (HL-60 [6]) was “Active” and the Activity (HL-60 [1]) was 77%.

For Ac-LVPPPPIVPYF-OH, the Activity (HL-60 [7]) was 7.2% and the Activity (HL-60 [1]) was “inactive”.

For Ac-VPPPPI-NH2, the Activity (HL-60 [1]) was “inactive”.

For `CC(=O)O[C@H]1C(=O)[C@@]2(C)[C@H]([C@H](OC(=O)c3ccccc3)[C@]3(O)C[C@H](OC(=O)[C@H](O)[C@@H](NC(=O)c4ccccc4)c4ccccc4)C(C)=C1C3(C)C)[C@]1(OC(C)=O)CO[C@@H]1C[C@@H]2O`, the Activity (Tubulin (Sus scrofa) [8]) was “Active”.

For `CC[C@H](C)[C@@H]1NC(=O)[C@@H]2CCCN2C(=O)[C@@H]2CCCN2C(=O)CCCNC(=O)[C@H](Cc2ccccc2)NC(=O)[C@H](Cc2ccc(O)cc2)NC(=O)[C@@H]2CCCN2C(=O)[C@H](C(C)C)NC1=O` (cyclo(F[GABA]PPIVPY)), the Activity [9] was 11.4%, the Activity (B16-F1) was 13.9% and the Activity (A-375 [10]) was 48%. The Activity (MCF7) was 11.8%, the Activity (B16-F10) was 13.6% and the Activity (HL-60 [3]) was “Dose-dependent effect”. For the same compound, the Activity (Jurkat) was 12%, the Activity (HL-60 [4]) was “Dose-dependent effect” and the Activity (HL-60 [5]) was “Dose-dependent effect”. The Activity (HL-60 [11]) was 17%, the Activity (HL-60 [6]) was “Active” and the Activity [12] was 17%. The Activity (RBL-2H3) was “Active” and the Activity (HL-60 [1]) was 56.6%.

For Ac-PPIVPYF-OH, the Activity (HL-60 [1]) was “inactive”.

`CC[C@H](C)[C@@H]1NC(=O)NCCOCCNC(=O)[C@H](Cc2ccccc2)NC(=O)[C@H](Cc2ccc(O)cc2)NC(=O)[C@@H]2C=CCN2C(=O)[C@H](C(C)C)NC1=O` gave an Activity (HL-60 [1]) of 5%.

In the case of `CC[C@H](C)[C@H](NC(=O)[C@@H]1CCCN1C(=O)[C@@H]1CCCN1C(=O)CCCN)C(=O)N[C@H](C(=O)NCC(=O)N[C@@H](Cc1ccc(O)cc1)C(=O)N[C@@H](Cc1ccccc1)C(=O)O)C(C)C` (H-[GABA]PPIVGYF-OH), the Activity (HL-60 [1]) is reported as “inactive”.

For `CC[C@H](C)[C@H](NC(=O)[C@@H]1CCCN1C(=O)[C@@H]1CCCN1C(=O)CCCN)C(=O)N[C@H](C(=O)N1CC=C[C@H]1C(=O)N[C@@H](Cc1ccc(O)cc1)C(=O)N[C@@H](Cc1ccccc1)C(=O)O)C(C)C` (H-[GABA]PPIV[ΔPro]YF-OH), the Activity (HL-60 [1]) was “inactive”.

`CC[C@H](C)[C@@H]1NC(=O)[C@@H]2CCCN2C(=O)[C@@H]2CCCN2C(=O)CCCNC(=O)[C@H](Cc2ccccc2)NC(=O)[C@H](Cc2ccc(O)cc2)NC(=O)CNC(=O)[C@H](C(C)C)NC1=O` (cyclo(F[GABA]PPIVGY)) gave an Activity (HL-60 [1]) of 11%.

In the case of Ac-LVPPPPIVPYF-NH2, the Activity [9] is reported as 2.3%, the Activity (B16-F1) is reported as “inactive” and the Activity (MCF7) is reported as “inactive”. The Activity (B16-F10) was “inactive”, the Activity (Homo sapiens [13]) was “inactive” and the Activity (Jurkat) was 4%. For the same compound, the Activity (A-375 [14]) was “inactive”, the Activity (HL-60 [11]) was 7.7% and the Activity (A-375 [15]) was “inactive”. The Activity (HL-60 [7]) was 6.5%, the Activity (HL-60 [1]) was “inactive” and the Activity (Homo sapiens [16]) was “inactive”.

For `CC[C@H](C)[C@H](NC(=O)[C@@H]1CCCN1C(=O)[C@@H]1CCCN1C(=O)CCCN)C(=O)N[C@H](C(=O)N1CCC[C@H]1C(=O)N[C@@H](Cc1ccc(O)cc1)C(=O)N[C@@H](Cc1ccccc1)C(=O)O)C(C)C` (H-[GABA]PPIVPYF-OH), the Activity (HL-60 [1]) was “inactive”.

For `CC[C@H](C)[C@@H]1NC(=O)[C@@H]2CCCN2C(=O)[C@@H]2CCCN2C(=O)CCCNC(=O)[C@H](Cc2ccccc2)NC(=O)[C@H](Cc2ccc(O)cc2)NC(=O)[C@@H]2C=CCN2C(=O)[C@H](C(C)C)NC1=O` (cyclo(F[GABA]PPIV[ΔPro]Y)), the Activity (HL-60 [1]) was 7%.

In the case of `CC[C@H](C)[C@H](NC(=O)NCCOCCN)C(=O)N[C@H](C(=O)N1CC=C[C@H]1C(=O)N[C@@H](Cc1ccc(OCc2ccccc2)cc1)C(=O)N[C@@H](Cc1ccccc1)C(=O)O)C(C)C` ({NH(CH2)2O(CH2)2NH2-CO}-IV[ΔPro]Y(Bn)F-OH), the Activity (HL-60 [1]) is reported as “inactive”.

With `CC[C@H](C)[C@@H]1NC(=O)[C@@H]2CCCN2C(=O)[C@@H]2CCCN2C(=O)CNC(=O)[C@H](Cc2ccccc2)NC(=O)[C@H](Cc2ccc(O)cc2)NC(=O)[C@@H]2CCCN2C(=O)[C@H](C(C)C)NC1=O` (cyclo(FGPPIVPY)) the Activity (MCF7) was 17.3%, the Activity (HL-60 [3]) was “Dose-dependent effect” and the Activity (HL-60 [4]) was “Dose-dependent effect”. The Activity (HL-60 [5]) was “Dose-dependent effect”, the Activity (HL-60 [6]) was “Active” and the Activity (RBL-2H3) was “Active”. The Activity (HL-60 [1]) was 42%.
